From patent US11311560B2, “Cyclic plasmenylethanolamines” (MED-LIFE DISCOVERIES LP, priority 2017, dated 2022)
Several values for one entry are separate records, joined by “and”; a condition that tells them apart may be missing. Identical values can stand only once. Entries after “also recorded” stand apart in the source; their conditions may differ.

Columns and labels:
[1] = Oral bioavailability study with 13C-labeled PPI-1050: labeled glycerolipids in serum; assay type: in vivo, mouse; conditions: wild-type C57Bl/6 mice
Description: A ^13C-labeled version of PPI-1040, called PPI-1050, was generated to evaluate the ability of the intact compound to cross the gut boundary and enter the bloodstream intact. PPI-1050 contains carbon-13 labels on the three glycerol carbons and 3 carbons of the sn-1 palmitic acid. Wild-type C57/Bl6 mice were treated with a single oral dose of 100 mg/kg PPI-1050 (formulated in Neobee-M5 with 0.1% thioglycerol) or vehicle. Animals were then sacrificed and blood harvested by cardiac puncture at 1, 3 and 6 hours post-treatment (n=3). Serum was then analyzed for presence of incorporation of the label into glycerolipids. Serum extraction was performed on 20 μL aliquots in 1.4 ml Thermo matrix tubes. […] A 100 μL aliquot of the ethyl acetate layer was analyzed using FI-MS/MS on a API4000™ mass spectrometer (Applied Biosystems) coupled with Agilent 1100 HPLC pump and auto sampler. […] The parent PlsEtn mass was determined by incorporating the intact number of 13C labels in the predicted parent together with the corresponding daughter ion (sn2 fatty acid loss) to obtain the quantitative MS/MS transition pair. To confirm the ethanolamine group remained intact upon absorption we also analyzed serum for the presence of labeled alkyl-acyl and vinyl-acyl glycerols using FI-MS/MS analysis in positive mode. All transitions measured can be found in Table 1 below. […]

Pex7 hypomorph/null mice = assay: 4 weeks oral treatment of Pex7 hypomorph/null animals: plasmalogen levels in plasma and tissues; assay type: in vivo, mouse; conditions: 50 mg/kg oral gavage, 5 days per week
From the text: The Pex7 hypomorph/null model is a hypomorphic (B6;129S6-Pex7^tm2.3Brav/s9) mouse model on a mixed background (C57BL/6NCrl and 129S6/SvEvTac). The hypomorphic allele in Pex7 hypomorph/null was generated by inserting an inverse neo cassette into intron 2 and lox P sites surrounding exon 3. The Pex7 null allele was generated using (B6.C-Tg(cmv-cre)1Cgn/J) mouse. The Pex7 hypomorph/null mouse model has 90% survival, 0.016-0.257% of wild type Pex7 mRNA levels and 20-30% plasmalogen levels Pex7 hypomoprh/null mice (3-4 months); and wild-type animals, males and females included in treatments and behavioral tests. Pex7 hypomorph/null mice were randomly assigned, after a baseline open field test, into 3 treatment groups: PPI-1040, PPI-1011, and vehicle controls, n=6 mice per group). PPI-1011 or PPI-1040 at 50 mg/kg was given by oral gavage 5 days per week (Monday-Friday) for 4 weeks. During the treatment period, animals were weighed weekly and observed for signs of distress. The open field test was performed at the end of treatment. To avoid selection bias, data analysis was performed only at the study end. Animals were sacrificed after a 24-hour post the last dose.
Tissue samples frozen by submersion in liquid nitrogen were homogenized using the Covaris Cryoprep resulting in a fine powder. The powder was then aliquoted using anti-static polypropylene disposable milligram scoops (TWD Tradewinds) resulting in 4-6 mg of tissue per 1.4 ml Thermo matrix tubes. Weights were recorded and metabolite levels were normalized per mg of tissue. HPLC grade water (50 μl) was added into each tube and samples were snap frozen in liquid nitrogen and then stored at −80° C. until extraction. On the day of the extraction, tissue samples were thawed to room temperate and sonicated for 15 mins in an ice bath before mixing at 2000 rpm for a 5 minute and then adding 600 μL of ethyl acetate. Lipids were extracted into ethyl acetate by mixing at 1750 rpm for 1 hr followed by a 10 min centrifugation at 3500 rpm to obtain a clear ethyl acetate layer. Tissue lipid extracts were diluted into an ethyl acetate stock (brain regions diluted 1:10, peripheral tissues 1:5) containing labeled internal standard [^13C-PlsEtn (C37^13C6H74NO7P). Water (40 μL) was added to the diluted extracts and samples were stirred at 1500 rpm for 1 hr followed by a 2 min centrifugation at 3500 rpm.
Plasma extraction was performed on 20 μL aliquots in 1.4 ml Thermo matrix tubes. Lipids were extracted by adding HPLC grade water (50 μl) and ethyl acetate containing labeled internal standard [^13C-PlsEtn (C37^13C6H74NO7P) at 0.2 μg/mL (500 μL) to each plasma sample and then mixing at 1750 rpm for 1 hr followed by a 2 min centrifugation at 3500 rpm for phase separation.
A 100 μL aliquot of the ethyl acetate layer was analyzed using FI-MS/MS on a API4000™ mass spectrometer (Applied Biosystems) coupled with Agilent 1100 HPLC pump and auto sampler. Each transition was scanned for 50 ms with a total acquisition time per sample of 2 min. ethyl acetate:methanol:water ratio of 80:15:5 at a flow rate of 600 μL/min was used as the mobile phase. All standards and stable isotopes used were >95% pure and manufactured by Med-Life Discoveries LP. All the solvents used above were HPLC grade. All samples were analyzed in triplicate to control for any variation resulting from instrument variability. Stable isotope ratios for each analyte were calculated for all tissue and plasma samples (Table 2).

## CC/C=C\C/C=C\C/C=C\C/C=C\C/C=C\C/C=C\CCC(=O)OC(CO/C=C\CCCCCCCCCCCCCC)COP1(=O)NCCO1 (stereo not drawn) [PPI-1040, 1-(((Z)-hexadec-1-en-1-yl)oxy)-3-((2-oxido-1,3,2-oxazaphospholidin-2-yl)oxy)propan-2-yl (4Z,7Z,10Z,13Z,16Z,19Z)-docosa-4,7,10,13,16,19-hexaenoate]
[1]; single oral dose 100 mg/kg PPI-1050
  oral bioavailability: orally bioavailable and crossed the gut lining intact
[1]; single oral dose 100 mg/kg PPI-1050, 1, 3, 6 hours
  intact compound with closed phosphoethanolamine ring in serum: not detectable in any samples
Pex7 hypomorph/null mice
  cerebellum tissue plasmalogen levels: did not show augmentation
  cortical tissue plasmalogen levels: did not show augmentation
  kidney plasmalogen levels: did not display a clear augmentation in any plasmalogen species; also recorded: did not display a significant level of augmentation in any plasmalogen species
  liver plasmalogen levels: increases in 16:0/18:1, 16:0/18:2 and 16:0/22:6 species reaching statistical significance and 16:0/18:1. 16:0/18:2
  lung plasmalogen levels: did not display a clear augmentation in any plasmalogen species; also recorded: did not display a significant level of augmentation in any plasmalogen species
  plasma level of the target 16:0/22:6 plasmalogen: normalizing the levels of the target 16:0/22:6 plasmalogen
  plasma levels of other 16:0 plasmalogens (re-organization at sn-2): increases in all measured 16:0 plasmalogens with the exception of 16:0/22:4; also recorded: increases in all 16:0 plasmalogens measured except 16:0/22:4
  plasma plasmalogen levels (all species measured): able to augment plasmalogen levels; also recorded: did effectively augment plasmalogen levels
  plasma plasmalogens containing 18:0 and 18:1 at sn-1: no augmentation was observed in any of those species
  plasmalogen levels in tissues (peripheral and brain): augmentation observed in the liver, skeletal muscle and small intestine
  skeletal muscle plasmalogen levels: 16:0/20:5, 16:0/22:6 and total 16:0 plasmalogen pool levels statistically increased
  small intestine plasmalogen levels: 16:0/18:1 and 16:0/18:2 species reaching a statistically significant increase and only 16:0/18:1 and 16:0/18:2 reached significance
  vinyl-acyl and alkyl-acyl glycerol levels: None of the alkyl-acyl or vinyl-acyl glycerol species measured were increased
